Experimental findings from publication PMC7570966 (Molecules, 2020) are described below.

Where two headings read alike, the source gives them in different places.

Assay [1] concerns the target T1, acetylcholinesterase (AChE) (Electrophorus electricus, UniProt O42275).
T1 construct: purchased Sigma–Aldrich (St. Louis, MO, USA)
Nature of the assay: biochemical. The conditions noted are these: Ellman's method, pH 8, triplicate. (In Ellman's method for cholinesterases, released thiocholine reacts with DTNB.)
Description: AChE inhibitory activities of the synthesized flavone derivatives were determined by Ellman’s method [45]. […] The assay was performed as described earlier [46] in 96-well microtiter plates using the EMR-500 ELISA system (Labomed, Los Angeles, CA, USA). Each well of the plate contained a mixture of sodium phosphate buffer pH 8, sample (studied compounds or reference), acetylcholinesterase, ATCI, and 5,5′-dithio-bisnitrobenzoic acid (DTNB). The absorbance was recorded at 405 nm. All samples were assayed in triplicate.

A further assay deals with T2, β-secretase (BACE-1) (Homo sapiens, UniProt P56817).
T2 construct: purchased Sigma–Aldrich
T2 sequence (P56817 46-501): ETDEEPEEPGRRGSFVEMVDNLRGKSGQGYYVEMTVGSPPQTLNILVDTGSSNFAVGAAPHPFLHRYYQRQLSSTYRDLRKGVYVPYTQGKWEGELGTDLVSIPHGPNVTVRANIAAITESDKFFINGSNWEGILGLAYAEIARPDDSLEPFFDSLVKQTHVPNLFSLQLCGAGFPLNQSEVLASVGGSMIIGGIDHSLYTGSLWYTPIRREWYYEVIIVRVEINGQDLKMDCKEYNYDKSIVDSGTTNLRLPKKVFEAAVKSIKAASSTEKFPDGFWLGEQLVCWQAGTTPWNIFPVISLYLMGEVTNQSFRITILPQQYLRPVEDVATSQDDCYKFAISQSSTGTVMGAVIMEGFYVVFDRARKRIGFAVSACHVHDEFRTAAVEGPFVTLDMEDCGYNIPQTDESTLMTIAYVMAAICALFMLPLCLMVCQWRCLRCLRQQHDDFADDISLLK
Nature of the assay: biochemical.

Setting [2] is: fluorescence kit, 2 h incubation at 37 °C, read-out: BACE-1 IC50.
[3] abbreviates: observed, -logIC50, read-out: BACE-1 Obs. pIC50 (converted).

T1 sequence (O42275 24-633): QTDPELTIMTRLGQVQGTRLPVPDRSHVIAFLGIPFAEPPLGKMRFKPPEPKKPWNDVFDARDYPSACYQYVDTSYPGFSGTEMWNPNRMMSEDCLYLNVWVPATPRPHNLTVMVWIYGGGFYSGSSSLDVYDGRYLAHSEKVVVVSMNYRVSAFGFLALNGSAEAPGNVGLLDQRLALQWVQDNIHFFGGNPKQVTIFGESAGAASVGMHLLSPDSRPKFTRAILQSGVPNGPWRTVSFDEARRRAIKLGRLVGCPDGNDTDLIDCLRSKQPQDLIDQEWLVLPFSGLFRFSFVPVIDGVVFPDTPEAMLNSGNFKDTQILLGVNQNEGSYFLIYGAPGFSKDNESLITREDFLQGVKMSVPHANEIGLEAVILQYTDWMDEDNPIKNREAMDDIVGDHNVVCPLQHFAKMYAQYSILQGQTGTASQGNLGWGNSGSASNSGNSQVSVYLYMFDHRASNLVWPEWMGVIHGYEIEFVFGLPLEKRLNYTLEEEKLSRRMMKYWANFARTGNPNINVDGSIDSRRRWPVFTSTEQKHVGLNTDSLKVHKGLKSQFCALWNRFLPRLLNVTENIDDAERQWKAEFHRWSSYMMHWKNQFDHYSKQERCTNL
Excerpt for β-secretase (BACE-1): A fluorescence β-Secretase (BACE-1) Activity Detection Kit was purchased from Sigma–Aldrich and used to determine the effect of the synthesized flavone derivatives on β-secretase activity. […] The enzyme solution was reacted with the substrate (7-methoxycumarin-4-acetyl-(Asn670, Lue671)-amyloid β/A4 precursor protein 770 fragment 667–676-(2,4-dinitrophenyl))Lys-Arg-Arg amide trifluoroacetate salt and sulfated polysaccharide samples in a fluorescence assay buffer in different wells. Baseline readings were measure immediately on an F-7000 fluorescence spectrophotometer (Hitachi, Tokyo, Japan; excitation: 320 nm; emission: 405 nm) and repeated after 2 h incubation at 37 °C.

`O=c1cc(-c2ccccc2)oc2cc(O)c(O)c(O)c12` [Compound B1, Baicalein] had an IC50 in assay [1] of 37.1 µM.
Consider `COc1cc2oc(-c3ccccc3)cc(=O)c2c(O)c1OC` [Compound B2, 5-Hydroxy-6,7-dimethoxyflavone], for which the figures for the IC50 (in assay [1]; at β-secretase (BACE-1) (setting [2]); on β-secretase (BACE-1) (setting [3])) were 25.5 µM, 43.6 µM and 43.7 µM, respectively.
Taken in the same sequence, the figures for `CCOc1cc2oc(-c3ccccc3)cc(=O)c2c(O)c1OCC` [Compound B3, 6,7-Diethoxy-5-hydroxyflavone] were 30 µM, 3.98 µM and 3.98 µM.
Taken in the same sequence, the figures for `C=CCOc1cc2oc(-c3ccccc3)cc(=O)c2c(O)c1OCC=C` [Compound B4, 6,7-Diallyloxy-5-hydroxyflavone] were 51.8 µM, 70.8 µM and 70.8 µM.
Taken in the same sequence, the figures for `C=CCOc1cc2oc(-c3ccccc3)cc(=O)c2c(OCC=C)c1OCC=C` [Compound B5, 5,6,7-Triallyloxyflavone] were 191 µM, 17 µM and 17 µM.
In the case of `O=c1cc(-c2ccccc2)oc2cc(OCc3ccccc3)c(OCc3ccccc3)c(OCc3ccccc3)c12` [Compound B6, 5,6,7-Tribenzyloxyflavone], the IC50 in assay [1] is 80.3 µM; at β-secretase (BACE-1) (setting [2]), 12.6 µM; at β-secretase (BACE-1) (setting [3]), 12.6 µM.
On to `CC(=O)Oc1cc2oc(-c3ccccc3)cc(=O)c2c(OC(C)=O)c1OC(C)=O` [Compound B7, 5,6,7-Triacetoxyflavone], for which the figures for the IC50 (in assay [1]; at β-secretase (BACE-1) (setting [2]); at β-secretase (BACE-1) (setting [3])) were 51.3 µM, 31.6 µM and 31.6 µM, respectively.
Consider `CCC(=O)Oc1cc2oc(-c3ccccc3)cc(=O)c2c(OC(=O)CC)c1OC(=O)CC` [Compound B8, 5,6,7-Tripropionoxyflavone], for which the figures for the IC50 (in assay [1]; at β-secretase (BACE-1) (setting [2]); on β-secretase (BACE-1) (setting [3])) were 66.2 µM, 22.4 µM and 22.4 µM, respectively.
Consider `COc1cc(O)c2c(=O)cc(-c3ccc(OC)c(OC)c3)oc2c1` [Compound D2, 5-Hydroxy-3’,4’,7-trimethoxyflavone], for which the IC50 in assay [1] is 87.1 µM; at β-secretase (BACE-1) (setting [2]), 2.14 µM; on β-secretase (BACE-1) (setting [3]) it was 2.14 µM.
Turning to `CCOc1cc(O)c2c(=O)cc(-c3ccc(OC)c(OCC)c3)oc2c1` [Compound D3, 3’,7-Diethoxy-5-hydroxy-4’-methoxyflavone], the figures for the IC50 (in assay [1]; on β-secretase (BACE-1) (setting [2]); at β-secretase (BACE-1) (setting [3])) were 129 µM, 3.16 µM and 3.16 µM, respectively.
Take `C=CCOc1cc(O)c2c(=O)cc(-c3ccc(OC)c(OCC=C)c3)oc2c1` [Compound D4, 3’,7-Diallyloxy-5-hydroxy-4’-methoxyflavone]: the figures for the IC50 (in assay [1]; at β-secretase (BACE-1) (setting [2]); on β-secretase (BACE-1) (setting [3])) were 151 µM, 3.6 µM and 3.63 µM, respectively.
For `COc1cc(OC)c2c(=O)cc(-c3ccc(OC)c(OC)c3)oc2c1` [Compound D5, 3’,4’,5,7-Tetramethoxyflavone], the IC50 in assay [1] was 73.8 µM; against β-secretase (BACE-1) (BACE-1 IC50, fluorescence kit, 2 h incubation at 37 °C), 1.66 µM; on β-secretase (BACE-1) (BACE-1 Obs. pIC50, observed, -logIC50) it was 1.66 µM.
On to `CCOc1cc(OCC)c2c(=O)cc(-c3ccc(OC)c(OCC)c3)oc2c1` [Compound D6, 3′,5,7-Triethoxy-4′-methoxyflavone], for which the figures for the IC50 (in assay [1]; at β-secretase (BACE-1) (setting [2]); at β-secretase (BACE-1) (setting [3])) were 75.9 µM, 1.58 µM and 1.58 µM, respectively.
`COc1ccc(-c2cc(=O)c3c(O)cc(OC(=O)c4ccccc4)cc3o2)cc1OC(=O)c1ccccc1` [Compound D7, 3’,7-Dibenzoyloxy-5-hydroxy-4’-methoxyflavone]: the IC50 in assay [1] was 340 µM; at β-secretase (BACE-1) (setting [2]), 2.86 µM; at β-secretase (BACE-1) (setting [3]), 2.88 µM.
